These results are taken from patent US20250332173A1, “COMPOUNDS AND METHODS FOR MODULATING NUCLEIC ACID SPLICING” (REMIX THERAPEUTICS INC., priority 2021, published 2025).

For one assay, the system named is HTT mRNA. Put plainly: RT-qPCR splicing assay, HTT canonical junction (CJ) and alternative junction (AJ) mRNA. The conditions noted are these: Homo sapiens; for AC50: increase in HTT alternative junction (AJ) mRNA, read-out: HTT AJ AC50. It is filed as cell-based, human. An outline of the steps:
(§1)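 A673 or K562 cells were treated for 24 h at 37 °C with an 11-point 3-fold compound dilution series (top final concentration 10 uM, DMSO ≤0.25%). After lysis, one-step TaqMan RT-qPCR quantified junction transcripts, normalized to PPIA for A673 or to GAPDH/GUSB for K562.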

For the next assay, the system named is MYB mRNA. Description: RT-qPCR splicing assay, MYB canonical junction (CJ) and alternative junction (AJ) mRNA. It is filed as cell-based, human. The settings on record: Homo sapiens; for AC50: increase in MYB alternative junction (AJ) mRNA, read-out: MYB AJ AC50. In short, it runs like this:
as §1
A general note: Quantitative PCR measures a nucleic acid by following its amplification.

The test system of assay [1] is K562 (human chronic myelogenous leukemia) cells. Put plainly: Cell Titer Glo 2.0 cell viability assay. The settings on record: Homo sapiens, K562, 72 h, K562 cells, 72 hours, Cell Titer Glo 2.0; read-out: K562 GI50. The class given is cell-based. In general terms: In ATP-based viability assays light output follows the ATP content of the culture.
The subject of assay [2] is Target C. Put plainly: HiBiT protein abundance assay, Target C HiBiT K562 cell line. The class given is cell-based. The conditions noted are these: Homo sapiens; HiBiT lytic detection, modified K562 cells, 24 hours, top dose 10 μM; read-out: Effect on protein abundance, Target C (IC50). As for the experimental part: • Promega Nano-Glo HiBiT Lytic Detection System (cat #N3030) • Corning 384-well TC-treated microplates (cat #3570) • Synthego Engineered Cells Knock-In Clones
Cells were maintained in IMDM with 10% FBS. Before the assay, cells were diluted with […] growth media (IMDM+[…] media) and were seeded in a 384-well plate at a density of 10,000 cells/well (for each cell line listed in Table 5). Each compound was prepared as a 10-point 3-fold serial dilution in DMSO with the top dose at a final concentration of 10 μM in the well. Unmodified K562 cells were added at the previously specified density with DMSO to serve as an assay baseline and positive control (PC) and DMSO only with the respective modified cell lines was added to the negative control (NC) columns. Final DMSO concentration was kept at or below 0.25%. Treated cell plates were placed in an incubator at 37° C. with […] for 24 hours. After 24 hours, 25 μL of Complete HiBit Lytic reagent was added to each well at room temperature (e.g. one plate requiring 10 mL Lytic Buffer, 100 μL LgBiT Protein, 200 μL Lytic Substrate), shaken for 5 minutes at 600 RPM, then left to sit for 10 minutes for signal to stabilize before reading on a Spark Cyto plate reader (Tecan) with a 500 ms measurement time.
To determine compound effects on protein abundance of each target in Table 5, the percent response for each respective cell line was calculated at each compound concentration as follows:
For the normalized response at each concentration, a four-parameter logistical regression was fit to the data and the response was interpolated at the […] to determine a concentration for protein abundance at […] the untreated control.
On the technique in general: The HiBiT peptide binds its large partner to form an active luciferase.

For assay [3], the system named is Target C. Description: HiBiT protein abundance assay, Target C (Promega Nano-Glo HiBiT Lytic Detection System, knock-in K562 cell line). It is filed as cell-based, human. The conditions noted are these: Homo sapiens, K562, 24 h, HiBiT K562 cell line, 24 hours, top dose 10 μM; read-out: Effect on protein abundance, Target C (IC50 category). In short, it runs like this: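 HiBiT knock-in K562 cells (10,000/well) were treated for 24 h at 37 °C with a 10-point 3-fold dilution series, top final concentration 10 μM, DMSO ≤0.25%. Lytic HiBiT luminescence was read, normalized to unmodified K562 and DMSO-treated controls, and IC50 was interpolated from a four-parameter logistic fit.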

[4] abbreviates: decrease in HTT canonical junction (CJ) mRNA, RT-qPCR, read-out: HTT CJ IC50.
Setting [5] is: canonical junction qPCR panel, Table 5, read-out: HTT (decrease in CJ mRNA levels, IC50).
[6] abbreviates: canonical junction qPCR panel, Table 5, read-out: MYB (decrease in CJ mRNA levels, IC50).
[7] abbreviates: decrease in MYB canonical junction (CJ) mRNA, RT-qPCR, read-out: MYB CJ IC50.

Like-named read-outs stand apart in the source and are kept apart here. Some results are limits rather than exact numbers.

In general, IC50 refers to the concentration at which inhibition is half-maximal. A word on the AC50: it is the concentration at which the activity in the assay is half-maximal. Usually GI50 stands for the concentration giving 50% growth inhibition.

`Cc1cn2nc(-c3ccc4c(=O)n(C5CCNCC5)ncc4n3)cc(C)c2n1` [Compound 1247]: the IC50 in the assay on HTT mRNA (setting [4]), in the assay on HTT mRNA (setting [5]), with MYB mRNA (setting [6]), in the assay on MYB mRNA (setting [7]) and with Target C [2] was less than 100 nM throughout. Besides, the AC50 with HTT mRNA (RT-qPCR) and in the assay on MYB mRNA (RT-qPCR) was less than 100 nM throughout. Also, the GI50 in assay [1] fell in the range of 100 to 1000 nM.
For the molecule `Cn1cc2cc(-c3ccc4c(=O)n(C5CCNC6(CC6)C5)ncc4n3)c(O)cc2n1` (stereo not shown) [Compound 1306], the IC50 in the assay with HTT mRNA (setting [4]), with HTT mRNA (setting [5]), in the assay on MYB mRNA (setting [6]), in the assay on MYB mRNA (setting [7]) and with Target C [2] was 100 to 1000 nM in each case. For the same molecule, the half-maximal activity concentration (AC50) in the assay with HTT mRNA (RT-qPCR) and in the assay on MYB mRNA (RT-qPCR) was 100 to 1000 nM in each case. Moreover, the GI50 in assay [1] was in the range of 100 to 1000 nM.
For `CN1CCC(n2ncc3nc(-c4cc5cn(C)nc5cc4O)ccc3c2=O)CC1` [Compound 1307], the IC50 in the assay on HTT mRNA (setting [4]), in the assay with HTT mRNA (setting [5]), in the assay on MYB mRNA (setting [6]), in the assay with MYB mRNA (setting [7]) and with Target C [2] was 1000 to 10000 nM each time. Moreover, the AC50 in the assay with HTT mRNA (RT-qPCR) and in the assay on MYB mRNA (RT-qPCR) was 1000 to 10000 nM in each case. Also, the GI50 in assay [1] is 1000 to 10000 nM.
Turning to `CCN1CCC(n2ncc3nc(-c4cc(C)c5nc(C)cn5n4)ccc3c2=O)CC1` [Compound 1308], the IC50 is 100 to 1000 nM with HTT mRNA (setting [4]); less than 100 nM in the assay on HTT mRNA (setting [5]); 100 to 1000 nM in the assay with MYB mRNA (setting [6]); 100 to 1000 nM with MYB mRNA (setting [7]); 100 to 1000 nM in the assay with Target C [2]. Further, the concentration at half-maximal activity (AC50) was less than 100 nM in the assay on HTT mRNA (RT-qPCR) and 100 to 1000 nM in the assay on MYB mRNA (RT-qPCR). The GI50 in assay [1] lay within 100 to 1000 nM.
Turning to `Cc1cn2nc(-c3ccc4c(=O)n(C5CCN(CCF)CC5)ncc4n3)cc(C)c2n1` [Compound 1309], the IC50 was 100 to 1000 nM with HTT mRNA (setting [4]); less than 100 nM with HTT mRNA (setting [5]); 100 to 1000 nM with MYB mRNA (setting [6]); 100 to 1000 nM in the assay with MYB mRNA (setting [7]); 100 to 1000 nM in the assay on Target C [2]. Also, the AC50 is less than 100 nM in the assay on HTT mRNA (RT-qPCR) and 100 to 1000 nM with MYB mRNA (RT-qPCR). The GI50 in assay [1] was in the range of 100 to 1000 nM.
For the molecule `CCN1CCC(n2ncc3nc(-c4cc5cn(C)nc5cc4O)ccc3c2=O)CC1` [Compound 1310], the IC50 in the assay with HTT mRNA (setting [4]) was in the range of 1000 to 10000 nM; in the assay on HTT mRNA (setting [5]) it was 100 to 1000 nM; in the assay with MYB mRNA (setting [6]), 1000 to 10000 nM; with MYB mRNA (setting [7]) it was 1000 to 10000 nM; with Target C [2], 1000 to 10000 nM. Besides, the AC50 with HTT mRNA (RT-qPCR) fell in the range of 100 to 1000 nM; with MYB mRNA (RT-qPCR) it was 1000 to 10000 nM. Further, in assay [1], the GI50 lay within 100 to 1000 nM.
Take `Cc1cn2nc(-c3ccc4c(=O)n(C5CCN(C)CC5)ncc4n3)cc(C)c2n1` [Compound 1311]: the IC50 in the assay with HTT mRNA (setting [4]), with HTT mRNA (setting [5]), in the assay with MYB mRNA (setting [6]), with MYB mRNA (setting [7]) and in the assay with Target C [2] was 100 to 1000 nM throughout. Moreover, the AC50 with HTT mRNA (RT-qPCR) and in the assay on MYB mRNA (RT-qPCR) was 100 to 1000 nM throughout. Besides, in assay [1], the GI50 is 100 to 1000 nM.
Regarding `Cc1cn2cc(-c3ncc4c(=O)n([C@@H]5CCNC6(CC6)C5)ccc4n3)cc(F)c2n1` [Compound 1457, 6-[(7R)-4-azaspiro[2.5]octan-7-yl]-2-(8-fluoro-2-methyl-imidazo[1,2-a]pyridin-6-yl)pyrido[4,3-d]pyrimidin-5-one], the concentration for half-maximal inhibition (IC50) in the assay with HTT mRNA (setting [4]) fell in the range of 1000 to 10000 nM; with HTT mRNA (setting [5]), 100 to 1000 nM; in the assay with MYB mRNA (setting [6]), 100 to 1000 nM; in the assay with MYB mRNA (setting [7]), 100 to 1000 nM; with Target C [3] it was 1000 to 10000 nM. The AC50 with HTT mRNA (RT-qPCR) and in the assay with MYB mRNA (RT-qPCR) was 100 to 1000 nM each time. Moreover, the concentration for 50% growth inhibition (GI50) in assay [1] fell in the range of 100 to 1000 nM.
